Experimental data published in US20110053872A1, “Pharmaceutical Composition For Preventing And Treating Diabetic Nephropathy And The Preparation Method Thereof” (GUANGZHOU CONSUN MEDICINE R & D CO., LTD., priority 2009, published 2011).

Legend:
[1] = system: DN model Wistar rats induced by streptozotocin; experiment: STZ DN model rat: serum biochemical indicators; format: in vivo; design: AGEs (advanced glycosylation end products): unit not given here
Procedure: (§1) The DN model Wistar rats were randomly divided into […] with 10 rats each group as indicated: normal glucose group; model group; CAL group (6, 2, 0.7 mg/kg); CAG group (9, 3, 1 mg/kg); CAL+CAG group (CAL:CAG, 2 mg/kg:1 mg/kg, 1 mg/kg:2 mg/kg); Radix Astragali group (5 g/kg); Aminoguanidine group (100 mg/kg).
(§2) The drugs or sodium chloride were intragastric adminstrated once each day for 14 weeks. After the administration, the total volume urine was collected by metabolic cage. The contents of urinary production, total protein, microalbumin and creatinine were determinated, and the biochemical indicators in blood was determinated using automatic biochemical analyzer. Then the kideny with fog Hahn fixation was reserved for histopathological examination.

[2] = system: DN model Wistar rats induced by streptozotocin; experiment: STZ DN model rat: pathohistological indicators; format: in vivo; conditions: kidney
Procedure: as §1, §2

[3] = system: DN model Wistar rats induced by streptozotocin; experiment: STZ DN model rat: urinary production, total protein, microalbumin and creatinine; format: in vivo; conditions: for Microalbumin: urine
Procedure: as §1, §2

[4] = system: Rat mesangial cell line HBZY21; experiment: AGEs-induced rat mesangial cell proliferation (MTT reduction assay); format: cell-based; conditions: 0.25 mg/ml AGEs, 24 h
Procedure: (§3) The mesangial cells in their exponential growth phase were cultured in 96-well plates at densities of 50000 cm^−2 in DMEM (5 mM glucose) at 37° C. in 5% CO2-95% air for 24 h. After pre-incubation in DMEM supplemented without fetal calf serum for 24 h, cells were then treated with various concentrations of glucose or AGEs for 24 h, 48 h, 72 h, 96 h, respectively.
(§4) Cells were pretreated with 0.25 mg/mlAGEs, then were treated with various concentrations of reagents as indicated: normal glucose group (NG, 5.5 mM glucose); AGEs group (AGEs, 0.25 mg/mlAGEs); CAL group (CAL, 10, 100 nM); CAG group (CAG, 10, 100 nM); CAL+CAG group (CAL:CAG, 10 μg/ml:5 μg/ml, 5 μg/ml:10 μg/ml); Radix Astragali group (RA, 50 mg/ml aqueous extract). The plates were then incubated for 24 h. Proliferation was examined by MTT reduction assay. Experimental conditions were tested in sextuplicate (six wells of the 96-well plate per experimental condition).

rat mesangial cells [5] = experiment: ECM accrementition induced by high glucose (PAS staining, FIG. 1); format: cell-based; conditions: 25 mM glucose
Procedure: wherein A: normal glucose group; B: high glucose group (25 mM); C: Radix Astragali group (RA, 50 mg/ml aqueous extract); D: CAL group (100 nM); E: CAL group (10 nM); F: CAL group (1 nM); G: CAG group (100 nM); H: CAG group (10 nM); I: CAG group (1 nM); J: CAL:CAG group (10 μg/ml:5 μg/ml). K: CAL:CAG group ([…]:10 μg/ml).
(§5) The treatment was the same as section 2.1 in Experiment 1. The measurement of matrix proliferation was measured by determinating the content of hydroxyproline and the expression of TGFβ-1.
(§6) The coverslips were pre-placed in the 24-wells plates to stick the cells. The cells were treated with various concentrations of reagents as indicated in Experiment 1. After the cells covered with coverslip, the supernatant was used for the determination of hydroxyproline and the slides of cells were treated with stained with immunohistochemical and PAS staining. The cells cultured without TGFβ-1 antibody were taken as the negative control.

rat mesangial cells [6] = experiment: Content of hydroxyproline in cell culture fluid of rat mesangial cells induced by high glucose; format: cell-based; conditions: high glucose (25 mM)
Procedure: as §5, §6

TGFβ-1 = TGFβ-1 expression induced by high glucose (immunohistochemical staining, FIG. 2); format: cell-based, rat; conditions: 25 mM glucose
Procedure: wherein A: normal glucose group; B: high glucose group (25 mM); C: negative control group; D: CAL group (100 nM); E: CAL group (10 nM); F: CAL group (1 nM); G: CAG group (100 nM); H: CAG group (10 nM); I: CAG group (1 nM); J: Radix Astragali group (RA, 50 mg/ml aqueous extract); K: CAL:CAG group (10 μg/ml:5 μg/ml); L: CAL:CAG group (5 μg/ml:10 μg/ml).
as §5, §6

[7] = system: Rat mesangial cell line HBZY21; experiment: High glucose-induced rat mesangial cell proliferation (MTT reduction assay); format: cell-based; conditions: 25 mM glucose, 24 h
Procedure: as §3
as §4, with “According to the aboved method, after pre-incubation in DMEM supplemented without fetal calf serum for 24 h, cells” for “Cells”, “25 mM glucose,” for “0.25 mg/mlAGEs,”, “high glucose” for “AGEs”, “(HG, 25 mM glucose);” for “(AGEs, 0.25 mg/mlAGEs);”

[8] = 100 mg/kg intragastric once each day for 14 weeks
[9] = 1 mg/kg intragastric once each day for 14 weeks
[10] = 3 mg/kg intragastric once each day for 14 weeks
[11] = 9 mg/kg intragastric once each day for 14 weeks
[12] = 0.7 mg/kg intragastric once each day for 14 weeks
[13] = 2 mg/kg intragastric once each day for 14 weeks
[14] = 6 mg/kg intragastric once each day for 14 weeks

With `N=C(N)NN` [Aminoguanidine, reference compound] the “AGEs (advanced glycosylation end products)” value [1, 8] was 283 ± 78, the “BUN (Blood urea nitrogen)” value [1, 8] was 6.6 ± 0.8 mmol/L and the LDL [1, 8] was 2.01 ± 0.58 mmol/L. For the same compound, the “MDA (malonaldehyde)” value [1, 8] was 5.9 ± 1.7 nmol/mL, the “SOD (superoxide dismutase)” value [1, 8] was 516 ± 20 U/ml and the “Scr (serum creatinine)” value [1, 8] was 77.7 ± 20.3 µmol/L. For the same compound, the triglyceride [1, 8] was 3.35 ± 0.87 mmol/L, the “ECM score (PAS %)” value [2, 8] was 26.5 ± 4.3 % and the Patho-score [2, 8] was 2.1 ± 1.0. For the same compound, the “TGFβ-1 (%)” value [2, 8] was 11.7 ± 5.7 %, the Urinary production [3, 8] was 36.2 ± 21.8 mL and the Urine creatinine [3, 8] was 4.0 ± 2.3 mM. It also gave a Urine protein [3, 8] of 43.2 ± 29.9 mg and a Microalbumin [3, 8] of 1.00 ± 0.27 mg.

`COc1ccc(-c2coc3cc(O[C@@H]4O[C@H](CO)[C@@H](O)[C@H](O)[C@H]4O)ccc3c2=O)cc1O` [CAG, 3′-hydroxy-4′-methoxyisoflavone-7-O-β-D-glucopyranoside] was tested, and the “OD value (λ = 490 nm)” value ([4]; 10 nM) was 0.34 ± 0.06, the “OD value (λ = 490 nm)” value ([4]; 100 nM) was 0.33 ± 0.04 and the “ECM accrementition induced by high glucose” value (rat mesangial cells [5]) was “inhibited”. The “AGEs (advanced glycosylation end products)” value [1, 9] was 288 ± 44, the “BUN (Blood urea nitrogen)” value [1, 9] was 6.9 ± 0.9 mmol/L and the LDL [1, 9] was 1.94 ± 0.44 mmol/L. The “MDA (malonaldehyde)” value [1, 9] was 7.9 ± 1.6 nmol/mL, the “SOD (superoxide dismutase)” value [1, 9] was 490 ± 23 U/ml and the “Scr (serum creatinine)” value [1, 9] was 89.0 ± 21.1 µmol/L. For the same compound, the triglyceride [1, 9] was 3.20 ± 0.71 mmol/L, the “AGEs (advanced glycosylation end products)” value [1, 10] was 281 ± 46 and the “BUN (Blood urea nitrogen)” value [1, 10] was 6.7 ± 0.8 mmol/L. For the same compound, the LDL [1, 10] was 1.60 ± 0.43 mmol/L, the “MDA (malonaldehyde)” value [1, 10] was 6.5 ± 1.4 nmol/mL and the “SOD (superoxide dismutase)” value [1, 10] was 502 ± 31 U/ml. The “Scr (serum creatinine)” value [1, 10] was 73.5 ± 22.5 µmol/L, the triglyceride [1, 10] was 2.66 ± 0.72 mmol/L and the “AGEs (advanced glycosylation end products)” value [1, 11] was 275 ± 68. The “BUN (Blood urea nitrogen)” value [1, 11] was 5.9 ± 1.6 mmol/L, the LDL [1, 11] was 1.23 ± 0.26 mmol/L and the “MDA (malonaldehyde)” value [1, 11] was 6.5 ± 1.2 nmol/mL. The “SOD (superoxide dismutase)” value [1, 11] was 512 ± 19 U/ml, the “Scr (serum creatinine)” value [1, 11] was 74.2 ± 16.0 µmol/L and the triglyceride [1, 11] was 2.43 ± 0.70 mmol/L. For the same compound, the “ECM score (PAS %)” value [2, 9] was 32.5 ± 4.1%, the Patho-score [2, 9] was 2.8 ± 0.9 and the “TGFβ-1 (%)” value [2, 9] was 20.0 ± 4.3 %. The “ECM score (PAS %)” value [2, 10] was 28.9 ± 5.4 %, the Patho-score [2, 10] was 1.9 ± 1.1 and the “TGFβ-1 (%)” value [2, 10] was 16.2 ± 4.7 %. For the same compound, the “ECM score (PAS %)” value [2, 11] was 26.9 ± 4.5 %, the Patho-score [2, 11] was 1.7 ± 0.9 and the “TGFβ-1 (%)” value [2, 11] was 9.1 ± 2.2 %. It also gave a Urinary production [3, 9] of 58.9 ± 20.5 mL, a Urine creatinine [3, 9] of 1.3 ± 0.6 mM and a Urine protein [3, 9] of 67.1 ± 18.4 mg. For the same compound, the Urinary production [3, 10] was 42.3 ± 12.8 mL, the Urine creatinine [3, 10] was 2.7 ± 1.1 mM and the Urine protein [3, 10] was 55.0 ± 13.4 mg. It also gave a Urinary production [3, 11] of 33.9 ± 20.2 mL, a Urine creatinine [3, 11] of 4.2 ± 1.6 mM and a Urine protein [3, 11] of 44.2 ± 20.6 mg. It also gave a Microalbumin [3, 9] of 1.52 ± 0.56 mg, a Microalbumin [3, 10] of 0.90 ± 0.45 mg and a Microalbumin [3, 11] of 0.93 ± 0.22 mg. The “Content of hydroxyproline in cell culture fluid” value (shortened to “Content of hydroxyproline”) (rat mesangial cells [6]; 10 nM) was 6.25 ± 1.20 µg/mL, the “Content of hydroxyproline” value (rat mesangial cells [6]; 100 nM) was 6.00 ± 1.53 µg/mL and the “expression of TGFβ-1 induced by high glucose” value (TGFβ-1) was “inhibited”. The “OD value (λ = 490 nm)” value ([7]; 10 nM) was 0.35 ± 0.04 and the “OD value (λ = 490 nm)” value ([7]; 100 nM) was 0.33 ± 0.03.

`COc1ccc(-c2coc3cc(O)ccc3c2=O)cc1O` [CAL] was tested, and the “OD value (λ = 490 nm)” value ([4]; 10 nM) was 0.42 ± 0.04, the “OD value (λ = 490 nm)” value ([4]; 100 nM) was 0.34 ± 0.04 and the “ECM accrementition induced by high glucose” value (rat mesangial cells [5]) was “inhibited”. The “AGEs (advanced glycosylation end products)” value [1, 12] was 290 ± 59, the “BUN (Blood urea nitrogen)” value [1, 12] was 7.0 ± 1.0 mmol/L and the LDL [1, 12] was 1.91 ± 0.55 mmol/L. For the same compound, the “MDA (malonaldehyde)” value [1, 12] was 7.8 ± 2.3 nmol/mL, the “SOD (superoxide dismutase)” value [1, 12] was 498 ± 33 U/ml and the “Scr (serum creatinine)” value [1, 12] was 91.0 ± 31.1 µmol/L. The triglyceride [1, 12] was 3.23 ± 0.76 mmol/L, the “AGEs (advanced glycosylation end products)” value [1, 13] was 289 ± 56 and the “BUN (Blood urea nitrogen)” value [1, 13] was 6.6 ± 1.2 mmol/L. For the same compound, the LDL [1, 13] was 1.51 ± 0.53 mmol/L, the “MDA (malonaldehyde)” value [1, 13] was 6.8 ± 1.9 nmol/mL and the “SOD (superoxide dismutase)” value [1, 13] was 513 ± 41 U/ml. For the same compound, the “Scr (serum creatinine)” value [1, 13] was 76.6 ± 24.5 µmol/L, the triglyceride [1, 13] was 2.76 ± 0.80 mmol/L and the “AGEs (advanced glycosylation end products)” value [1, 14] was 281 ± 78. For the same compound, the “BUN (Blood urea nitrogen)” value [1, 14] was 6.5 ± 1.5 mmol/L, the LDL [1, 14] was 1.43 ± 0.36 mmol/L and the “MDA (malonaldehyde)” value [1, 14] was 6.8 ± 1.3 nmol/mL. For the same compound, the “SOD (superoxide dismutase)” value [1, 14] was 520 ± 29 U/ml, the “Scr (serum creatinine)” value [1, 14] was 75.2 ± 17.1 µmol/L and the triglyceride [1, 14] was 2.57 ± 0.80 mmol/L. For the same compound, the “ECM score (PAS %)” value [2, 12] was 33.1 ± 5.1%, the Patho-score [2, 12] was 2.7 ± 1.0 and the “TGFβ-1 (%)” value [2, 12] was 19.3 ± 6.3 %. For the same compound, the “ECM score (PAS %)” value [2, 13] was 29.8 ± 5.6 %, the Patho-score [2, 13] was 1.8 ± 1.3 and the “TGFβ-1 (%)” value [2, 13] was 17.6 ± 5.8 %. The “ECM score (PAS %)” value [2, 14] was 27.0 ± 5.5 %, the Patho-score [2, 14] was 1.6 ± 1.1 and the “TGFβ-1 (%)” value [2, 14] was 8.8 ± 3.2 %. For the same compound, the Urinary production [3, 12] was 59.9 ± 21.8 mL, the Urine creatinine [3, 12] was 1.4 ± 0.6 mM and the Urine protein [3, 12] was 69.1 ± 20.4 mg. The Urinary production [3, 13] was 41.3 ± 16.8 mL, the Urine creatinine [3, 13] was 2.9 ± 1.2 mM and the Urine protein [3, 13] was 54.0 ± 17.4 mg. The Urinary production [3, 14] was 35.9 ± 22.2 mL, the Urine creatinine [3, 14] was 4.3 ± 2.0 mM and the Urine protein [3, 14] was 46.2 ± 21.3 mg. It also gave a Microalbumin [3, 12] of 1.57 ± 0.56 mg, a Microalbumin [3, 13] of 0.93 ± 0.55 mg and a Microalbumin [3, 14] of 0.92 ± 0.42 mg. The “Content of hydroxyproline” value (rat mesangial cells [6]; 10 nM) was 7.15 ± 1.19 µg/mL, the “Content of hydroxyproline” value (rat mesangial cells [6]; 100 nM) was 6.65 ± 1.74 µg/mL and the “expression of TGFβ-1 induced by high glucose” value (TGFβ-1) was “inhibited”. The “OD value (λ = 490 nm)” value ([7]; 10 nM) was 0.34 ± 0.02 and the “OD value (λ = 490 nm)” value ([7]; 100 nM) was 0.33 ± 0.05.
